Consider 1 compound from EP1154795B1, “MEANS FOR TREATING AND DIAGNOSING RESTLESS LEGS SYNDROME” (priority 1998, dated 2000).

For the series, the system named is patients with light to moderate RLS/PMLS. Briefly: Double-blind, placebo controlled parallel group study with donepezil. The format is in vivo. The source says: Double-blind, placebo controlled parallel group study with donepezil. In a double-blind, placebo controlled parallel study with the CEI donepezil we studied 9 patients with light to moderate RLS/PMLS (PLM index, PLMI = 3-17).

The mark [1] stands for this setting: 5mg once daily, evening dose for 21 days.

As to `COc1cc2c(cc1OC)C(=O)C(CC1CCN(Cc3ccccc3)CC1)C2` (stereo not drawn) [Donepezil, donepezil], under setting [1], the “change in total sleep time after treatment” value was “no significant change”, the “increase of the proportion of rapid eye movement sleep after treatment” value was “approximately 30%” and the “side effects during the study period” value is listed as “No side effects were reported”. Moreover, the “mean reduction of PLMI” value (5mg once daily, evening dose for 21 days, from 8.3 to 5.3) is on record as “approximately 36%”. Moreover, the “Marked reduction of PLMI (reduction in 5 patients)” value (5 of 9 patients, minor change in 3 patients, one patient increased PLMI, 5mg once daily for 21 days) is 57-100%. For the same compound, where the note is “9 patients (PLMI = 3-17), 5mg once daily, evening dose for 21 days, mean PLMI reduced from 8.3”, the “mean PLMI after treatment” value was determined as 5.3.
